Source: EP0365837B1 (DANA FARBER CANCER INSTITUTE, priority 1988, dated 1990)
Values joined by “and” are separate entries in the source; they are usually repeats but may differ in a detail not shown here. Equal entries are not always repeated. Where two headings read alike, the source gives them in different places. *1 amine or outer side, *2 acyl side, *3 side chain or, on linkers, in order; H or OH if unused. Where a SMILES comes first, the peptide text is derived from it. Bridges are numbered along the chain shown (N, C = ends). Roman numbers before positions name the chains, in order. [ ]: non-standard residue; d: D form. Actinocin(9to1) = Cc1c2oc3c(C)ccc(C(=O)[*:1])c3nc-2c(C(=O)[*:2])c(N)c1=O; NMeV = CN[C@H](C(=O)O)C(C)C; Sar = CNCC(=O)O

Legend:
[1] = biological target: ICAM-1-LFA-1 adhesion (Homo sapiens, UniProt P05107+P20701); details: Marlin, S.D., et al., cell 51:813-819 (1987); cited from earlier work
[2] = test system: JY cells; test: LFA-1 dependent aggregation of JY cells (qualitative and quantitative aggregation assays); format: cell-based; details: 50 ng/ml of PMA; quantitative assay, 200 rpm, 2 hours; SD = 8%, N = 6
Procedure: In order to assess the extent of cellular adhesion, aggregation assays were employed. Cell lines used in such assays were washed two times with RPMI 1640 medium containing 5 mM Hepes buffer (Sigma Chemical Co., St. Louis) and resuspended to a concentration of 2 x 10⁶ cells/ml. Added to flat-bottomed, 96-well microtiter plates (No. 3596; Costar, Cambridge, MA) were 50 »l of appropriate monoclonal antibody supernatant or 50 »l of complete medium with or without purified monoclonal antibodies, 50 »l of complete medium containing 200 ng/ml of the phorbol ester phorbol myristate acetate (PMA) and 100 »l of cells at a concentration of 2 x 10⁶ cells/ml in complete medium. This yielded a final concentration of 50 ng/ml PMA and 2 x 10⁵ cells/well. Cells were allowed to settle spontaneously, and the degree of aggregation was scored at various time points. […] In order to obtain a more quantitative estimate of cellular adhesion, reagents and cells were added to 5 ml polystyrene tubes in the same order as above. Tubes were placed in a rack on a gyratory shaker at 37°C. […] Percent aggregation was determined by the following equation: [formula] […]
As a second means of measuring adhesion, the quantitative assay described in Example 2 was used. […]

[3] = test system: human dermal fibroblasts; format: cell-based
Procedure: The kinetics of interleukin 1 and gamma interferon effects on ICAM-1 expression on dermal fibroblasts were determined using the ¹²⁵I goat anti-mouse IgG binding assay of Dustin, M.L. et al. (J. Immunol. 137:245-254 (1986); which reference is herein incorporated by reference). To perform this binding assay, human dermal fibroblasts were grown in a 96-well microtiter plate to a density of 2-8 x 10⁴ cells/well (0.32 cm²). The cells were washed twice with RPMI 1640 medium supplemented as described in Example 1. The cells were additionally washed once with Hanks Balanced Salt Solution (HBSS), 10 mM HEPES, 0.05% NaN₃ and 10% heat-inactivated fetal bovine serum. Washing with this binding buffer was done at 4°C. To each well was added 50 »l of the above-described binding buffer and 50 »l of the appropriate hybridoma supernatant with X63 and W6/32 as the negative and positive controls, respectively. After incubation for 30 minutes at 4°C, with gentle agitation, the wells were washed twice with binding buffer, and the second antibody ¹²⁵I-goat anti-mouse IgG, was added at 50 nCi in 100 »l. The ¹²⁵I-goat anti-mouse antibody was prepared by using Iodogen (Pierce) according to the method of Fraker, P.J. et al. (Biochem. Biophys. Res. Commun. 80:849 (1978)). After 30 minutes at 4°C, the wells were washed twice with 200 »l of binding buffer and the cell layer was solubilized by adding 100 »l of 0.1 N NaOH. This and a 100 »l wash were counted in a Beckman 5500 gamma counter. The specific counts per minute bound was calculated as [cpm with monoclonal antibody]-[cpm with X63]. All steps, including induction with specific reagents, were carried out in quadruplicate.

[4] = test system: human umbilical vein endothelial cells (HUVEC); test: Radioimmune assay of ICAM-1 expression (¹²⁵I RR1/1 binding) on HUVEC; format: cell-based
Procedure: In order to measure ICAM-1 expression, a radioimmune assay was developed. In this assay, purified RR1/1 was iodinated using iodogen to a specific activity of 10 »Ci/»g. Endothelial cells were grown in 96 well plates and treated as described for each experiment. The plates were cooled at 4°C by placing in a cold room for 0.5-1 hr, not immediately on ice. The monolayers were washed 3x with cold complete media and then incubated 30 m at 4°C with ¹²⁵I RR1/1. The monolayers were then washed 3x with complete media. The bound ¹²⁵I was released using 0.1 N NaOH and counted. The specific activity of the ¹²⁵I RR1/1 was adjusted using unlabeled RR1/1 to obtain a linear signal over the range of antigen densities encountered in this study. Non-specific binding was determined in the presence of a thousand fold excess of unlabeled RR1/1 and was subtracted from total binding to yield the specific binding.

[5] = test system: Peripheral blood mononuclear cells (PBMC); test: cells; details: Homo sapiens
[6] = test system: Peripheral blood mononuclear cells (PBMC); details: Table 19, R x S; R6-5-D6 8 ng/ml, Azathioprine 1 ng/ml; no inhibitor 49,570
[7] = IFN-γ (10 U/ml) (18 hr), alone or + cycloheximide 20 »g/ml, actinomycin D 10 »M, mean ± SD
[8] = IL 1 (10 U/ml) (4 hr), alone or + cycloheximide 20 »g/ml, actinomycin D 10 »M, tunicamycin 2 »g/ml, mean ± SD
[9] = no cytokine, Control (4 hr) 1524 ± 140, cycloheximide 20 »g/ml, actinomycin D 10 »M, tunicamycin 2 »g/ml, mean ± SD
[10] = no cytokine, Control (4 hr) 11928 ± 600, cycloheximide 20 »g/ml, actinomycin D 10 »M, tunicamycin 2 »g/ml, mean ± SD

Sequence of ICAM-1-LFA-1 adhesion (P20701 26-1170): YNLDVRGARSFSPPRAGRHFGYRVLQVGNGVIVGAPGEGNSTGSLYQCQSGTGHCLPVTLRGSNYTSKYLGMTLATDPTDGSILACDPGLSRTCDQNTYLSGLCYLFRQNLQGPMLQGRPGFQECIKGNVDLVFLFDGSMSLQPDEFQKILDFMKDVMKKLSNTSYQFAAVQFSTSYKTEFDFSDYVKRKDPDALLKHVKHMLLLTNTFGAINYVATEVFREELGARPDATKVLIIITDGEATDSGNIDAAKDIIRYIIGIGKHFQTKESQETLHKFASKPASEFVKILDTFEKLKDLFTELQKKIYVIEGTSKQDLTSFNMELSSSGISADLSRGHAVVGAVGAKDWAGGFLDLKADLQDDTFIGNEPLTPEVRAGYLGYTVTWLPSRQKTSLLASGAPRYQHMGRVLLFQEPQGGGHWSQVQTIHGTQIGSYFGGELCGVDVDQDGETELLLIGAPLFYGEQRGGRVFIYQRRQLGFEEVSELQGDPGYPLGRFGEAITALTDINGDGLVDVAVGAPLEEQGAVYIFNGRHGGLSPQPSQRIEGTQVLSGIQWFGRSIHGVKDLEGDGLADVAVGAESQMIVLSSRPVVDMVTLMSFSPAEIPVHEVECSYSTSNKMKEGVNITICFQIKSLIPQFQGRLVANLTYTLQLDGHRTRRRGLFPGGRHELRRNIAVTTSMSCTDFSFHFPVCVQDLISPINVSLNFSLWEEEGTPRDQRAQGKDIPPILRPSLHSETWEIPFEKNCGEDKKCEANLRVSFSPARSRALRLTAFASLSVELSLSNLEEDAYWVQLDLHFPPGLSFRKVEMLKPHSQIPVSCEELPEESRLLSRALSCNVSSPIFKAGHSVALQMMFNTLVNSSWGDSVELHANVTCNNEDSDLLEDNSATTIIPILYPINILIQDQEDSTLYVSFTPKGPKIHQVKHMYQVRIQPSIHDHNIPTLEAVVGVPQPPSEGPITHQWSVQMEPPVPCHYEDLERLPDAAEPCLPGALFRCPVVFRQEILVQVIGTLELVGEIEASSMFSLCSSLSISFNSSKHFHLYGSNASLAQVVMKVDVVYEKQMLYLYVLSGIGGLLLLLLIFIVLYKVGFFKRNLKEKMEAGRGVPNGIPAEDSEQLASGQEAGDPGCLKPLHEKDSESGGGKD
Sequence of ICAM-1-LFA-1 adhesion (P05107 23-769): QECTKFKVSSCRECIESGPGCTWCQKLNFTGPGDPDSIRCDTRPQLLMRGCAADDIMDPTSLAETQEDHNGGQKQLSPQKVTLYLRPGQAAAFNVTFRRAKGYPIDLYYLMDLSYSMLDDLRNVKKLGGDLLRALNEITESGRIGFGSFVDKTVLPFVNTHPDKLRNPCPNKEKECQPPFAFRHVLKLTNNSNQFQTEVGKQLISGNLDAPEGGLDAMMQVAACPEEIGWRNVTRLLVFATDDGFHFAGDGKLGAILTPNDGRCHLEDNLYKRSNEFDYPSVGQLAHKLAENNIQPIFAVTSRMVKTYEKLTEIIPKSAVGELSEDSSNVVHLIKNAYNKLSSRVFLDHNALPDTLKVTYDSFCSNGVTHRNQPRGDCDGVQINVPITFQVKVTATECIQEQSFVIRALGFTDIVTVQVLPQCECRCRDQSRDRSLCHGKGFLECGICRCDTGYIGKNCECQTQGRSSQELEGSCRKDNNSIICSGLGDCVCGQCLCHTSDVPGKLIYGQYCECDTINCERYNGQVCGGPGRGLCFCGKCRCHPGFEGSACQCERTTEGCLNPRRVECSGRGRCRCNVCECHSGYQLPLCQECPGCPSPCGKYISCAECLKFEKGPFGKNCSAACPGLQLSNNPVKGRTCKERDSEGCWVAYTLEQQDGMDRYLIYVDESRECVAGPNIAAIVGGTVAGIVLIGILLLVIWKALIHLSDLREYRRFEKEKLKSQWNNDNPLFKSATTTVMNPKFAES

Molecule: GRGDSP
- inhibit ICAM-1-LFA-1 adhesion [1]: failure

Molecule: CCCCCCCCCCCCCC(=O)O[C@@H]1[C@@H](C)[C@@]2(O)[C@@H](C=C(CO)C[C@]3(O)C(=O)C(C)=C[C@@H]23)[C@@H]2C(C)(C)[C@]12OC(C)=O [PMA, phorbol myristate acetate]
- JY cells in aggregates [2]: 87%

Molecule: Cc1c2oc3c(C)ccc(C(=O)N[C@@H]4C(=O)N[C@H](C(C)C)C(=O)N5CCC[C@H]5C(=O)N(C)CC(=O)N(C)[C@@H](C(C)C)C(=O)O[C@@H]4C)c3nc-2c(C(=O)N[C@@H]2C(=O)N[C@H](C(C)C)C(=O)N3CCC[C@H]3C(=O)N(C)CC(=O)N(C)[C@@H](C(C)C)C(=O)O[C@@H]2C)c(N)c1=O [actinomycin D] (I: T[dV]P[Sar][NMeV] / II: T[dV]P[Sar][NMeV]; ester I:1-I:C, II:1-II:C; linker I:N-II:N via Actinocin(9to1))
- ¹²⁵I Goat Anti-Mouse IgG Specifically Bound (cpm) anti-HLA-A,B,C [3, 7]: 12089 ± 550 cpm
- ¹²⁵I Goat Anti-Mouse IgG Specifically Bound (cpm) anti-ICAM-1 [3, 7]: 1326 ± 186 cpm
- ¹²⁵I Goat Anti-Mouse IgG Specifically Bound (cpm) anti-HLA-A,B,C [3, 8]: 12294 ± 123 cpm
- ¹²⁵I Goat Anti-Mouse IgG Specifically Bound (cpm) anti-ICAM-1 [3, 8]: 1613 ± 88 cpm
- effects of both interleukin 1 and gamma interferon on ICAM-1 expression on fibroblasts ([3]; cycloheximide 20 »g/ml, actinomycin D 10 »M): abolish
- ¹²⁵I Goat Anti-Mouse IgG Specifically Bound (cpm) anti-ICAM-1 [3, 9]: 1590 ± 46 cpm
- ¹²⁵I Goat Anti-Mouse IgG Specifically Bound (cpm) anti-HLA-A,B,C [3, 10]: 12276 ± 608 cpm

Molecule: C[C@@H]1C[C@@H]([C@H](O)CC2CC(=O)NC(=O)C2)C(=O)[C@@H](C)C1 [cycloheximide]
- ¹²⁵I Goat Anti-Mouse IgG Specifically Bound (cpm) anti-HLA-A,B,C [3]: 10675 ± 800 cpm and 10678 ± 471 cpm and 12676 ± 446 cpm
- ¹²⁵I Goat Anti-Mouse IgG Specifically Bound (cpm) anti-ICAM-1 [3]: 1461 ± 59 cpm and 1513 ± 210 cpm and 1619 ± 381 cpm

Molecule: polymyxin B
- ¹²⁵I Specifically bound (CPM) ([4]; HUVEC, 16 hr, 100 ng/ml rIL-1 beta, 50 ng/ml rIL-1 alpha, 50 ng/ml rTNF alpha, 10 »g/ml LPS, 10 ng/ml rIFN gamma, polymyxin B 10 »g/ml, control 603 ± 11): 480 ± 23 CPM
- decreased ICAM-1 expression (basal) ([4]; polymyxin B at 10 »g/ml, cells in low endotoxin serum, additional decrease): 25%

Molecule: tunicamycin
- ¹²⁵I Goat Anti-Mouse IgG Specifically Bound (cpm) anti-HLA-A,B,C [3, 8]: 13434 ± 661 cpm
- ¹²⁵I Goat Anti-Mouse IgG Specifically Bound (cpm) anti-ICAM-1 [3, 8]: 3084 ± 113 cpm
- inhibited the interleukin 1 effect on ICAM-1 expression ([3]; fibroblasts, tunicamycin 2 »g/ml): 43%
- ¹²⁵I Goat Anti-Mouse IgG Specifically Bound (cpm) anti-ICAM-1 [3, 9]: 1461 ± 176 cpm
- ¹²⁵I Goat Anti-Mouse IgG Specifically Bound (cpm) anti-HLA-A,B,C [3, 10]: 12340 ± 940 cpm

Molecule: Cn1cnc([N+](=O)[O-])c1Sc1ncnc2nc[nH]c12 [Azathioprine]
- inhibition at 0.001 µg/mL [5]: 14%
- ³HT Incorporation (CPM) [6]: 42,710 CPM

Molecule: GRGESP
- inhibit ICAM-1-LFA-1 adhesion [1]: failure
